Test system: paclitaxel-treated mice
Assay: thermal latency (Hot/Cold plate) in paclitaxel-induced CIPN
Format: in vivo, mouse
Settings: for thermal hyperalgesia: acute treatment
Procedure: Thermal and mechanical testing. Mice were housed on 12-hr light-/dark cycles with lights on at 7:00 AM. Mice had food and water available ad libitum. All behavioral experiments were performed between the hours of 9:00 AM and 6:00 PM. Mice were randomized to groups from multiple cages to avoid using mice from experimental groups that were cohabitating. Sample size was estimated as […] using a power calculation with 80% power, expectations of 50% effect size, with alpha set to 0.05. The number of animals used in each experiment was based on available animals of the appropriate sex and age but was at least n=5 for experiments. Standard deviation for power calculations was based on previously published data using similar models. Mice were habituated for 1 hr to clear acrylic behavioral chambers before beginning the experiment. Mechanical paw withdrawal thresholds were measured using the up-down method (Chaplan et al., 1994) with calibrated Von Frey filaments (Stoelting Company, Wood Dale, Ill.). Thermal latency was measured using a Hot/Cold plate setting the temperature at 49, 50 and 52° C. […] The experimenter was blinded to the genotype of the mice and drug condition in all experiments.

SMILES: Cc1cc(Nc2cc(N)ncn2)c(=O)n2c1C(=O)NC21CCCCC1 [eFT508, Tomivosertib]
- thermal hypersensitivity (10 mg/kg after full development of CIPN): reversal
- thermal hyperalgesia (at 3 hrs): did not significantly attenuate
- thermal hyperalgesia (at 24 hrs): a significant effect was observed

Reference: patent US20220226321A1, “INHIBITOR OF MNK FOR THE TREATMENT OF NEUROPATHIC PAIN” (Board of Regents, The University of Texas System, priority 2019, published 2022)
